From BigSolDB 2.1

CC(=O)NC1CCSC1=O (stereo not given)
solubility (mole fraction)
Conditions	278.15 K	283.15 K	288.15 K	293.15 K	298.15 K	303.15 K	308.15 K	313.15 K	318.15 K	323.15 K
in 2-butoxyethanol	0.0606	0.0701	0.0776	0.0895	0.102	0.116	0.132	0.15	0.175	0.199
in 2-ethoxyethanol	0.0952	0.108	0.121	0.141	0.158	0.176	0.199	0.223	0.248	0.278
in 2-methoxyethanol	0.132	0.15	0.169	0.189	0.21	0.233	0.255	0.279	0.31	0.344
in 2-propoxyethanol	0.0753	0.0874	0.0976	0.11	0.123	0.138	0.158	0.179	0.203	0.23
in ethanol	0.0355	0.0439	0.055	0.0699	0.0866	0.107	0.132	0.164	0.201	0.243
in ethyl acetate	0.0168	0.0199	0.0235	0.0283	0.0325	0.0388	0.0455	0.0546	0.0649	0.0772
in methanol	0.0713	0.0887	0.111	0.137	0.165	–	–	–	–	–
